According to paper PMC6271771, “4-Amino-substituted Benzenesulfonamides as Inhibitors of Human Carbonic Anhydrases” (Molecules, 2014):
Where “and” joins values, the source holds several entries; their conditions need not be identical. Equal values may be shown once. Read-outs that look alike come from different tables or passages of the source. Each block holds one compound with its values, some of them ahead of it.

What was measured:
CA I [1] = target: T1, CA I (Homo sapiens, UniProt P00915); experiment: Fluorescent thermal shift assay (FTSA), CA I; format: binding
T1 construct: made in house
T1 sequence (P00915 whole entry): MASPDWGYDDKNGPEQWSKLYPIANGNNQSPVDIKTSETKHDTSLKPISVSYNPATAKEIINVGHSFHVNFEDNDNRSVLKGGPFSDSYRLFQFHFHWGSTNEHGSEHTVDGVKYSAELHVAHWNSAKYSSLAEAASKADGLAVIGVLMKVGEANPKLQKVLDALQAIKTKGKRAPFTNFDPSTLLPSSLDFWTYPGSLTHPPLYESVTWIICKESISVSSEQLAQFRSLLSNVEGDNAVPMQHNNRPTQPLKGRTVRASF

CA II [2] = target: T2, CA II (Homo sapiens, UniProt P00918); experiment: Fluorescent thermal shift assay (FTSA), CA II; format: binding; conditions: pH 7.0, 37 °C
T2 construct: made in house

CA VI [3] = target: T3, CA VI (Homo sapiens, UniProt P23280); experiment: Fluorescent thermal shift assay (FTSA), CA VI; format: binding
T3 construct: made in house
T3 sequence (P23280 18-308): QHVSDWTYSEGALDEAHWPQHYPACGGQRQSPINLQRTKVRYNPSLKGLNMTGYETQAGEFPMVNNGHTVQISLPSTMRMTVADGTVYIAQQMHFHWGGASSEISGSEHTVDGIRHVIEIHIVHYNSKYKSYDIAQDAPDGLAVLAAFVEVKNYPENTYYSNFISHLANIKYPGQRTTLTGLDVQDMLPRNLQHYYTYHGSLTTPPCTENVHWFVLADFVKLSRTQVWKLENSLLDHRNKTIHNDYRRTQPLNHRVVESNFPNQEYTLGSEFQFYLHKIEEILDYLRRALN

CA VII [4] = target: T4, CA VII (Homo sapiens, UniProt P43166); experiment: Fluorescent thermal shift assay (FTSA), CA VII; format: binding
T4 construct: made in house
T4 sequence (P43166 whole entry): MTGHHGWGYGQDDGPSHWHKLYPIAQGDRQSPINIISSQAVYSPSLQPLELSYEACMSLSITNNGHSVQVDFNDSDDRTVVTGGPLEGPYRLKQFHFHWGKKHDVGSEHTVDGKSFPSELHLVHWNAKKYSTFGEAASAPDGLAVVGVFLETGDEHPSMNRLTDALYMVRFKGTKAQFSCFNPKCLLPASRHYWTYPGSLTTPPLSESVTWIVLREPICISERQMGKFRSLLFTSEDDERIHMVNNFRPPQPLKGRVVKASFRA

CA XII [5] = target: T5, CA XII (Homo sapiens, UniProt O43570); experiment: Fluorescent thermal shift assay (FTSA), CA XII; format: binding
T5 construct: made in house
T5 sequence (O43570 30-289 limits assumed): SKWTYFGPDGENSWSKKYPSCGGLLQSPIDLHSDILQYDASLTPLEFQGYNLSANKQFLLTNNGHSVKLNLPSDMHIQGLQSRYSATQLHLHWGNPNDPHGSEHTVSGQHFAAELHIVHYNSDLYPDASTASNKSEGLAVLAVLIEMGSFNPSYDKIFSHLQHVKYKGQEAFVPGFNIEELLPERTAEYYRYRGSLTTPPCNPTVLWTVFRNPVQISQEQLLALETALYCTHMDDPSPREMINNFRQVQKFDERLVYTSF

CA XIII [6] = target: T6, CA XIII (Homo sapiens, UniProt Q8N1Q1); experiment: Fluorescent thermal shift assay (FTSA), CA XIII; format: binding
T6 construct: made in house
T6 sequence (Q8N1Q1 whole entry): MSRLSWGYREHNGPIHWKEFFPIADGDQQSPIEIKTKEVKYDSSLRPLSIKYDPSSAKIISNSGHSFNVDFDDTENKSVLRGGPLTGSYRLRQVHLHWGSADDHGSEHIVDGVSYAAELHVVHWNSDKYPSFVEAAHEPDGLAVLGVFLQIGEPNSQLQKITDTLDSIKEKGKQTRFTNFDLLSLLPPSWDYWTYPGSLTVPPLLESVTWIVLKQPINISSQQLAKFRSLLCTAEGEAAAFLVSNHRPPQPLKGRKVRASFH

CA I [7] = target: T1, CA I; experiment: Isothermal titration calorimetry (ITC), CA I; format: binding
Description: (§1) The synthesized compounds could be arranged into two groups. The first group of compounds is the N-aryl-β-alanine derivatives containing the primary sulfonamide group 3–25 (except in the compound 4 which is a tertiary sulfonamide) and the second group of compounds—diazobenzenesulfonamides 26–33. Compounds such as benzenesulfonamide (BSA) and acetazolamide (AZM) were used as controls. The binding affinity of these compounds to six CA isoforms I, II, VI, VII, XII, and XIII was determined by the fluorescent thermal shift assay (FTSA) and confirmed for two key compounds 18 and 31 by the isothermal titration calorimetry (ITC).
(§2) Isothermal titration calorimetry (ITC) experiments were performed using VP-ITC instrument (Microcal, Inc., Northampton, MA, USA) with 5–10 µM protein solution in the cell and 50–100 µM of the ligand solution in the syringe. A typical experiment consisted of 25 injections (10 µL each) within 3 min intervals. Experiments were performed at 37 °C in a 50 mM sodium phosphate buffer containing 100 mM NaCl at pH 7.0, with a final DMSO concentration of 2%, equal in the syringe and the cell.

CA II [8] = target: T2, CA II; experiment: Isothermal titration calorimetry (ITC), CA II; format: binding; conditions: for K (ITC titration of CA II) / ΔH (ITC titration of CA II): 37 °C, 50 mM phosphate buffer (pH 7.0), 100 mM NaCl, 2% DMSO, Figure 2
Description: as §1, §2

CA VII [9] = target: T4, CA VII; experiment: Isothermal titration calorimetry (ITC), CA VII; format: binding
Description: as §1, §2

CA XIII [10] = target: T6, CA XIII; experiment: Isothermal titration calorimetry (ITC), CA XIII; format: binding
Description: as §1, §2

CA VI [11] = target: T3, CA VI; design: method as in PMID 24300919, PMID 17228881; conditions: read-out: inhibition constant Ki for CA VI; previously reported; cited from earlier work
CA VI [12] = target: T3, CA VI; design: method as in Murakami and Sly 35; conditions: read-out: Ki for CA VI; ref Murakami and Sly 35; cited from earlier work
CA XII [13] = target: T5, CA XII; experiment: Isothermal titration calorimetry (ITC), CA XII; format: binding; conditions: pH 7.0, 37 °C, read-out: Kd for CA XII by isothermal titration calorimetry (values in the brackets)
Description: as §1, §2

[14] = FTSA, pH 7.0, 37 °C, read-out: Compound Dissociation Constants Kd for CA XIII

Kd (CA I [1]; FTSA, pH 7.0, 37 °C, read-out: Compound Dissociation Constants Kd for CA I): 1670 nM
Kd (CA II [2]; read-out: Compound Dissociation Constants Kd for CA II): 670 nM and 667 nM
Kd (CA VI [3]; FTSA, pH 7.0, 37 °C, read-out: Compound Dissociation Constants Kd for CA VI): 27000 nM
Kd (CA VII [4]; FTSA, pH 7.0, 37 °C, read-out: Compound Dissociation Constants Kd for CA VII): 3330 nM
Kd (CA XII [5]; FTSA, pH 7.0, 37 °C, read-out: Compound Dissociation Constants Kd for CA XII): 14300 nM
Kd (CA XIII [6]; [14]): 4000 nM
Kd (CA I [7]; ITC, pH 7.0, 37 °C, read-out: Kd for CA I by isothermal titration calorimetry (values in the brackets)): 750 nM
K (ITC titration of CA II) (CA II [8]): 2.2E6
ΔH (ITC titration of CA II) (CA II [8]): -9320
Kd (CA II [8]; ITC, pH 7.0, 37 °C, read-out: Kd for CA II by isothermal titration calorimetry (values in the brackets)): 454 nM
Kd (CA VII [9]; ITC, pH 7.0, 37 °C, read-out: Kd for CA VII by isothermal titration calorimetry (values in the brackets)): 900 nM
Kd (CA XIII [10]; ITC, pH 7.0, 37 °C, read-out: Kd for CA XIII by isothermal titration calorimetry (values in the brackets)): 1000 nM
Compound: Cc1cc(C)n(C(=O)CCNc2ccc(S(N)(=O)=O)cc2)n1 [Compound 18, 4-{[3-(3,5-Dimethyl-1H-pyrazol-1-yl)-3-oxopropyl]amino}benzene-1-sulfonamide]

Compound: Nc1ccc(S(N)(=O)=O)cc1 [Compound 1, 4-Aminobenzene-1-sulfonamide, reference compound]
difference between own Kd and Ki of Murakami and Sly, CA I (CA I [1]; Kd (FTSA) versus Ki of ref 35): 2 times
Kd (CA VI [3]): 56000 nM
Kd (CA VII [4]): 50000 nM
Kd (CA XIII [6]; [14]): 100000 nM
Ki (CA VI [11]): 900 nM
Ki (CA VI [12]): 9900 nM

Compound: NS(=O)(=O)c1ccc(/N=N/N2CCCCCC2)cc1 [Compound 31]
Kd (CA I [1]): 6 nM
Kd (CA II [2]; Compound Dissociation Constants Kd for CA II): 43.5 nM
Kd (CA VI [3]): 14300 nM
Kd (CA VII [4]): 125 nM
Kd (CA XII [5]): 670 nM
Kd (CA XIII [6]): 22.2 nM
Kd (CA I [7]): 22 nM
Kd (CA II [8]): 40 nM
K (ITC titration of CA II) (CA II [8]): 2.5E7
ΔH (ITC titration of CA II) (CA II [8]): -9640
Kd (CA VII [9]): 192 nM
Kd (CA XII [13]): 220 nM
Kd (CA XIII [10]): 78 nM
